# Data: patent US9850283B2, “Macrocyclic inhibitors of the PD-1/PD-L1 and CD80(B7-1)/PD-L1 protein/protein interactions” (BRISTOL-MYERS SQUIBB COMPANY, priority 2013, dated 2017)
# Where two headings read alike, the source gives them in different places. Positions of bridges follow the written chain, without caps; N, C: chain ends. Non-standard residues stand in square brackets, D forms with d. Residues, ends and D or L forms follow the SMILES beside them. ξ: configuration not given here. Phe(3,4-(OMe)2) = COc1ccc(C[C@H](N)C(=O)O)cc1OC; Phe(3-F) = N[C@@H](Cc1cccc(F)c1)C(=O)O; Bta = N[C@@H](Cc1csc2ccccc12)C(=O)O; Ala(cPr) = N[C@@H](CC1CC1)C(=O)O; Hyp = O=C(O)[C@@H]1C[C@@H](O)CN1; NMeNle = CCCC[C@H](NC)C(=O)O; NMeM = CN[C@@H](CCSC)C(=O)O; NMeA = CN[C@@H](C)C(=O)O; Orn = NCCC[C@H](N)C(=O)O; Dab = NCC[C@H](N)C(=O)O; Dap = NC[C@H](N)C(=O)O; ξC = NC(CS)C(=O)O; Sar = CNCC(=O)O
# Tests used:
# [1] = target: T1, LK35.2-hPD-L1 cells / PE-labeled PD-1-Ig (Homo sapiens, UniProt Q9NZQ7); assay: LK35.2-hPD-L1 cell binding high-content screening assay; type: cell-based; conditions: cluster symbol, read-out: CBA IC50 cluster
# T1 construct: expressed in transfected cells; host or cells: LK35.2 mouse B cell line
# Method in brief: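 Fluorescent PD-1-Ig binding to PD-L1-expressing LK35.2 cells, imaged after washing. Conditions: 1 nM PE-PD-1-Ig, 37 °C, 1 h, RPMI with 10% fetal calf serum.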
# Human PD-L1/PD-1 = target: T2, Human PD-L1/PD-1 (Homo sapiens, UniProt Q9NZQ7); assay: HTRF PD-1-Ig/PD-L1-His binding assay (human PD-L1); conditions: cluster symbol; read-out: HTRF IC50 cluster
# T2 construct: made in house; host or cells: HEK293T
# Method in brief: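 Ig- and His-fused extracellular PD-1/PD-L1 binding in BSA/Tween-20 dPBS. HTRF with Eu anti-Ig (1 nM final) and APC anti-His (20 nM final).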
# [2] = cell binding assay, cell line not given
# [3] = cell line of CBA not given (LK35.2-hPD-L1 or 293T-hPD-L1)
# T1 sequence (Q9NZQ7 19-290): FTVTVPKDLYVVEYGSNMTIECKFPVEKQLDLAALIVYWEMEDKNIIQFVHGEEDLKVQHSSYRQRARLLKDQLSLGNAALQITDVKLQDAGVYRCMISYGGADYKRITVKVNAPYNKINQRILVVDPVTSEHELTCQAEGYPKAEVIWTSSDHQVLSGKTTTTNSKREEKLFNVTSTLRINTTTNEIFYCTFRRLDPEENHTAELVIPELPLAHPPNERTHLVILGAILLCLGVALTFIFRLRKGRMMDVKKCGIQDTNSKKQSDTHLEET
# T2 sequence (Q9NZQ7 with tags, fused parts or gaps): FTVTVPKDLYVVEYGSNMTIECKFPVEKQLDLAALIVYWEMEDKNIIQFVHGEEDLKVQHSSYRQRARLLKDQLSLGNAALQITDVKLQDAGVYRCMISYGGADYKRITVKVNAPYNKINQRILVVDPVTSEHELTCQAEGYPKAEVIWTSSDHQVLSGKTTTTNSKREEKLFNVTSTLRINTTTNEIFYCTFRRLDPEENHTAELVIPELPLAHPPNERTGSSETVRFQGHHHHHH
"IC50 [1, 2]",IC50 (Human PD-L1/PD-1),"IC50 [1, 3]",Compound
4.78 to 72.9 nM,6.76 to 30.3 nM,,CCCC[C@H]1C(=O)N(C)[C@@H](CCCC)C(=O)N[C@@H](CCN)C(=O)N[C@H](C(=O)NCC(N)=O)CSCC(=O)N[C@@H](Cc2ccc(O)cc2)C(=O)N(C)[C@@H](C)C(=O)N[C@@H](CCN)C(=O)N2CCC[C@H]2C(=O)N[C@@H](CN)C(=O)N[C@@H](CC(C)C)C(=O)N2C[C@H](O)C[C@H]2C(=O)N[C@@H](Cc2c[nH]c3ccccc23)C(=O)N[C@@H](CCN)C(=O)N[C@@H](Cc2c[nH]c3ccccc23)C(=O)N1C [Example 5140] ({CH2CO}-Y[NMeA][Dab]P[Dap]L[Hyp]W[Dab]W[NMeNle][NMeNle][Dab]CG-NH2; thioether N-14)
0.158 to 4.71 nM,0.385 to 6.74 nM,,CCCC[C@H]1C(=O)N(C)[C@@H](CCCC)C(=O)N[C@@H](C)C(=O)N[C@H](C(=O)NCC(N)=O)CSCC(=O)N[C@@H](Cc2ccc(O)cc2)C(=O)N(C)[C@@H](C)C(=O)N[C@@H](CC(N)=O)C(=O)N2CCC[C@H]2C(=O)N[C@@H](Cc2cnc[nH]2)C(=O)N[C@@H](CC(C)C)C(=O)N2C[C@H](O)C[C@H]2C(=O)N[C@@H](Cc2c[nH]c3ccccc23)C(=O)N[C@@H](CCN)C(=O)N[C@@H](Cc2c[nH]c3ccccc23)C(=O)N1C [Example 5035]
0.158 to 4.71 nM,0.385 to 6.74 nM,,CCCC[C@H]1C(=O)N(C)[C@@H](CCCC)C(=O)N[C@@H](CCC(=O)O)C(=O)N[C@H](C(=O)NCC(N)=O)CSCC(=O)N[C@@H](Cc2ccc(O)cc2)C(=O)N(C)[C@@H](C)C(=O)N[C@@H](CC(=O)O)C(=O)N2CCC[C@H]2C(=O)N[C@@H](Cc2c[nH]cn2)C(=O)N[C@@H](CCCN)C(=O)N2C[C@H](O)C[C@H]2C(=O)N[C@@H](Cc2c[nH]c3ccccc23)C(=O)N[C@@H](CCCCN)C(=O)N[C@@H](Cc2c[nH]c3ccccc23)C(=O)N1C [Example 5137] ({CH2CO}-Y[NMeA]DPH[Orn][Hyp]WKW[NMeNle][NMeNle]ECG-NH2; thioether N-14)
,6.76 to 30.3 nM,4.78 to 72.9 nM,CCCC[C@H]1C(=O)N(C)[C@@H](CCCC)C(=O)N[C@@H](C)C(=O)N[C@H](C(=O)NCC(=O)O)CSCC(=O)N[C@@H](Cc2ccc(O)cc2)C(=O)N(C)[C@@H](C)C(=O)N[C@@H](CC(N)=O)C(=O)N2CCC[C@H]2C(=O)N[C@@H](Cc2cnc[nH]2)C(=O)N[C@@H](CC(C)C)C(=O)N[C@@H](CCCCN)C(=O)N[C@@H](Cc2c[nH]c3ccccc23)C(=O)N[C@@H](CO)C(=O)N[C@@H](Cc2c[nH]c3ccccc23)C(=O)N1C [Example 1238]
0.158 to 4.71 nM,0.385 to 6.74 nM,,CCCC[C@H]1C(=O)N(C)[C@@H](CCSC)C(=O)N[C@@H](CCCNC(=N)N)C(=O)NC(C(=O)NCC(N)=O)CSCC(=O)N[C@@H](Cc2ccc(O)cc2)C(=O)N(C)[C@@H](C)C(=O)N[C@@H](CC(N)=O)C(=O)N2CCC[C@H]2C(=O)N[C@@H](CN)C(=O)N[C@@H](CC(C)C)C(=O)N2CCC[C@H]2C(=O)N[C@@H](Cc2c[nH]c3ccccc23)C(=O)N[C@@H](CO)C(=O)N[C@@H](Cc2csc3ccccc23)C(=O)N1C (stereo partly shown) [Example 9082] ({CH2CO}-Y[NMeA]NP[Dap]LPWS[Bta][NMeNle][NMeM]R[ξC]G-NH2; thioether N-14)
0.158 to 4.71 nM,0.385 to 6.74 nM,,CCCC[C@H]1C(=O)N(C)[C@@H](CCCC)C(=O)N[C@@H](CO)C(=O)NC(C(=O)NCC(N)=O)CSCC(=O)N[C@@H](Cc2ccc(O)cc2)C(=O)N(C)[C@@H](C)C(=O)N[C@@H](CC(N)=O)C(=O)N2CCC[C@H]2C(=O)N[C@@H](Cc2cnc[nH]2)C(=O)N[C@@H](CC(C)C)C(=O)N2C[C@H](O)C[C@H]2C(=O)N[C@@H](Cc2c[nH]c3ccccc23)C(=O)N[C@@H](CO)C(=O)N[C@@H](Cc2csc3ccccc23)C(=O)N1C (stereo partly shown) [Example 9028] ({CH2CO}-Y[NMeA]NPHL[Hyp]WS[Bta][NMeNle][NMeNle]S[ξC]G-NH2; thioether N-14)
,> 30.5 nM,> 74.3 nM,"CCCC[C@H]1C(=O)N(C)CC(=O)N[C@@H](CC(=O)O)C(=O)N[C@@H](C(C)C)C(=O)N(C)[C@@H](Cc2ccccc2)C(=O)N[C@@H](Cc2ccc(O)cc2)C(=O)N(C)CC(=O)N[C@@H](Cc2c[nH]c3ccccc23)C(=O)N[C@@H](Cc2ccc(O)cc2)C(=O)N[C@@H](CC(C)C)C(=O)N[C@H](C(=O)NCC(N)=O)CSCC(=O)N[C@@H](Cc2ccccc2)C(=O)N1C [Example 3053] (HELM PEPTIDE1{[O=C(C[*:3])[*:2]].F.[CCCC[C@@H](C(=O)[*:2])N(C)[*:1]].[Sar].D.V.[meF].Y.[Sar].W.Y.L.C.G.[am]}$PEPTIDE1,PEPTIDE1,1:R3-13:R3$$$V2.0)"
0.158 to 4.71 nM,0.385 to 6.74 nM,,CCCC[C@H]1C(=O)N(C)[C@@H](CCCC)C(=O)N[C@@H](CCCNC(=N)N)C(=O)N[C@H](C(=O)NCC(N)=O)CSCC(=O)N[C@@H](Cc2ccc(O)cc2)C(=O)N(C)[C@@H](C)C(=O)N[C@@H](CC(N)=O)C(=O)N2CCC[C@H]2C(=O)N[C@@H](CN)C(=O)N[C@@H](CC(C)C)C(=O)N2C[C@H](O)C[C@H]2C(=O)N[C@@H](Cc2c[nH]c3ccccc23)C(=O)N[C@@H](CC(N)=O)C(=O)N[C@@H](Cc2c[nH]c3ccccc23)C(=O)N1C [Example 6033] ({CH2CO}-Y[NMeA]NP[Dap]L[Hyp]WNW[NMeNle][NMeNle]RCG-NH2; thioether N-14)
4.78 to 72.9 nM,6.76 to 30.3 nM,,CCCC[C@H]1C(=O)N(C)[C@@H](CCCC)C(=O)N[C@@H](CCCNC(=N)N)C(=O)N[C@H](C(=O)NCC(N)=O)CSCC(=O)N[C@@H](Cc2cccc(F)c2)C(=O)N(C)[C@@H](C)C(=O)N[C@@H](CC(N)=O)C(=O)N2CCC[C@H]2C(=O)N[C@@H](Cc2cnc[nH]2)C(=O)N[C@@H](CC(C)C)C(=O)N2CCC[C@H]2C(=O)N[C@@H](Cc2c[nH]c3ccccc23)C(=O)N[C@@H](CO)C(=O)N[C@@H](Cc2c[nH]c3ccccc23)C(=O)N1C [Example 7016] ({CH2CO}-[Phe(3-F)][NMeA]NPHLPWSW[NMeNle][NMeNle]RCG-NH2; thioether N-14)
4.78 to 72.9 nM,6.76 to 30.3 nM,,CCCC[C@H]1C(=O)N(C)[C@@H](CCCC)C(=O)N[C@@H](CCCNC(=N)N)C(=O)N[C@H](C(=O)NCC(N)=O)CSCC(=O)N[C@@H](Cc2ccc(O)cc2)C(=O)N(C)[C@@H](C)C(=O)N[C@@H](CCN)C(=O)N2CCC[C@H]2C(=O)N[C@@H](Cc2c[nH]cn2)C(=O)N[C@@H](CCC(N)=O)C(=O)N2C[C@H](O)C[C@H]2C(=O)N[C@@H](Cc2c[nH]c3ccccc23)C(=O)N[C@@H](CO)C(=O)N[C@@H](Cc2c[nH]c3ccccc23)C(=O)N1C [Example 5092] ({CH2CO}-Y[NMeA][Dab]PHQ[Hyp]WSW[NMeNle][NMeNle]RCG-NH2; thioether N-14)
4.78 to 72.9 nM,0.385 to 6.74 nM,,CCCC[C@H]1C(=O)N[C@@H](CCCNC(=N)N)C(=O)NC(C(=O)NCC(N)=O)CSCC(=O)N[C@@H](Cc2ccc(O)cc2)C(=O)N(C)[C@@H](C)C(=O)N[C@@H](CC(N)=O)C(=O)N2CCC[C@H]2C(=O)N[C@@H](Cc2cnc[nH]2)C(=O)N[C@@H](CO)C(=O)N2CCC[C@H]2C(=O)N[C@@H](Cc2c[nH]c3ccccc23)C(=O)N[C@@H](CO)C(=O)N[C@@H](Cc2csc3ccccc23)C(=O)N(C)[C@@H](CCSC)C(=O)N1C (stereo partly shown) [Example 9112] ({CH2CO}-Y[NMeA]NPHSPWS[Bta][NMeM][NMeNle]R[ξC]G-NH2; thioether N-14)
0.158 to 4.71 nM,0.385 to 6.74 nM,,CCCC[C@H]1C(=O)N(C)[C@@H](CCCC)C(=O)N[C@@H](CCCNC(=N)N)C(=O)N[C@H](C(=O)NCC(N)=O)CSCC(=O)N[C@@H](Cc2ccc(O)cc2)C(=O)N(C)[C@@H](C)C(=O)N[C@@H](CC(=O)O)C(=O)N2CCC[C@H]2C(=O)N[C@@H](Cc2c[nH]cn2)C(=O)N[C@@H](CCCCN)C(=O)N2C[C@H](O)C[C@H]2C(=O)N[C@@H](Cc2c[nH]c3ccccc23)C(=O)N[C@@H](CCCCN)C(=O)N[C@@H](Cc2c[nH]c3ccccc23)C(=O)N1C [Example 5110] ({CH2CO}-Y[NMeA]DPHK[Hyp]WKW[NMeNle][NMeNle]RCG-NH2; thioether N-14)
4.78 to 72.9 nM,0.385 to 6.74 nM,,CCCC[C@H]1C(=O)N(C)[C@@H](CCCC)C(=O)N[C@@H](CC2CC2)C(=O)N[C@H](C(=O)NCC(N)=O)CSCC(=O)N[C@@H](Cc2ccc(O)cc2)C(=O)N(C)[C@@H](C)C(=O)N[C@@H](CC(N)=O)C(=O)N2CCC[C@H]2C(=O)N[C@@H](Cc2c[nH]cn2)C(=O)N[C@@H](CCC(N)=O)C(=O)N2C[C@H](O)C[C@H]2C(=O)N[C@@H](Cc2c[nH]c3ccccc23)C(=O)N[C@@H](CO)C(=O)N[C@@H](Cc2c[nH]c3ccccc23)C(=O)N1C [Example 5081] ({CH2CO}-Y[NMeA]NPHQ[Hyp]WSW[NMeNle][NMeNle][Ala(cPr)]CG-NH2; thioether N-14)
,6.76 to 30.3 nM,4.78 to 72.9 nM,"CCCC[C@H]1C(=O)N(C)[C@@H](CCCC)C(=O)N[C@@H](CCCNC(=N)N)C(=O)N[C@H](C(=O)NCC(N)=O)CSCC(=O)N[C@@H](Cc2ccc(OC)c(OC)c2)C(=O)N(C)[C@@H](C)C(=O)N[C@@H](CC(N)=O)C(=O)N2CCC[C@H]2C(=O)N[C@@H](Cc2cnc[nH]2)C(=O)N[C@@H](CC(C)C)C(=O)N(C)CC(=O)N[C@@H](Cc2c[nH]c3ccccc23)C(=O)N[C@@H](CO)C(=O)N[C@@H](Cc2c[nH]c3ccccc23)C(=O)N1C [Example 1105] ({CH2CO}-[Phe(3,4-(OMe)2)][NMeA]NPHL[Sar]WSW[NMeNle][NMeNle]RCG-NH2; thioether N-14)"
